Measurements from patent publication US20110184018A1, “METHOD FOR TREATING PERIPHERAL NEUROPATHIC PAIN” (LOHOCLA RESEARCH CORPORATION, priority 2005, published 2011).
pIC50: −log10 of the molar value.

How the values were obtained:
[1] = Brain levels of DCUKA after intraperitoneal administration; format: in vivo; details: over at least 2 hours
Method: While the acid forms of the diarylureido-dihalokynurenic acid compounds are detectable in the brain after intravenous or intraperitoneal injection, “prodrug” versions (e.g., esters) were prepared to enhance transport across the blood-brain barrier. FIG. 6 illustrates the brain levels of DCUKA after administration of DCUKA itself, the DCUK-O-methyl ester and the DCUK-O-ethyl ester. […] Accordingly, ethyl esters of the diarylureido-dihalokynurenate compounds are particularly preferred (e.g., DCUK-OEt).

[2] = test system: C57BL/6 mice; assay: Elevated-plus maze (anxiolytic effects); format: in vivo, mouse; details: i.p., about 60 minutes before testing
Method: In Panel A, mice were administered (i.p.) the indicated doses of DCUK-OEt about 60 minutes before behavioral testing on the elevated-plus maze. The number of times entered and the time spent in the open arms of the plus-maze were recorded. In Panel B, groups of mice were administered (i.p.) 50 mg/kg DCUK-OEt in an injection vehicle (5% TWEEN 80/0.5% methylcellulose) and tested at the indicated times with comparison to mice injected with vehicle alone. In both panels, mice treated with vehicle alone (i.e., absent the DCUKA compound) were tested 60 minutes after injection of vehicle. A greater percent of time spent in the open arms indicates an anxiolytic action of the drug. Significant differences in the percent time spent on the open arms of the maze are evident at doses as low as 25mg/kg. […]
The anxiolytic effect of the DCUK-OMe was tested in C57BL/6 mice with an elevated-plus maze apparatus. […] A trained observer blind to the treatment conditions scored the number of entries into open arms and the number of entries into closed arms over a 5-minutes period. […] The percentage of open arm entries (open arm entries/total arm entries) was calculated for each animal and used as a measure of the anxiolytic/anxiogenic effects of drug treatment. In addition, the total number of entries made into the […] was recorded as a measure of drug effects on locomotor activity. […]

[3] = biological target: T1, glycine recognition site of the NMDA receptor complex (Rattus norvegicus, UniProt P35439); assay: [3H]5,7-DCKA binding assay; details: rat cortical membranes; none = no displacement at 100 μM
T1 construct: The telencephalon (cerebral cortex, hippocampus, and striatum) was dissected and homogenized; from tissue; host or cells: rat telencephalon membranes (cerebral cortex, hippocampus, striatum), Triton X-100 treated
Method: General receptor-binding procedures. Male Sprague-Dawley rats were decapitated and their brains removed rapidly. The telencephalon (cerebral cortex, hippocampus, and striatum) was dissected and homogenized in 20 volumes of ice-cold 0.32 M sucrose, 20 mM HEPES-KOH (pH 7.2 at room temperature) containing protease inhibitors ([…], 5 mg/mL antipain, 20 mg/mL soybean trypsin inhibitor, 500 μM benzamidine, […] aprotinin, and 500 μM phenylmethylsulfonyl fluoride) with a motor driven glass-TEFLON® fluorocarbon homogenizer (8-10 strokes at setting 1). The homogenate was centrifuged at 800 g for 10 minutes. The pellet was discarded and the supernatant was centrifuged at 20,000 g for 20 minutes. The resulting pellet was resuspended in 20 volumes of distilled water containing 500 μM benzamidine and centrifuged for 20 minutes at 7500 g. Then the supernatant and buffy coat were centrifuged three times (51,500 g for 20 minutes) in the presence of distilled water containing 500 μM benzamidine. All centrifugation steps were carried out at 4° C. The final pellet was frozen rapidly at −80° C.
On the day of the assay, the pelleted membranes were resuspended in 20 volumes of 50 mM HEPES-KOH buffer, pH 7.4, and incubated for 20 minutes at 37° C. followed by centrifugation (51,500 g for 20 minutes). Membranes were then resuspended in 50 mM HEPES-KOH buffer (pH 7.8) containing 0.08% Triton X-100. After stirring for 30 minutes at 4° C., the membranes were pelleted by centrifugation (100,000 g for 20 minutes). The membranes were then washed twice by resuspension in the buffer appropriate for the binding assay and centrifugation (100,000 g for 20 minutes). The final pellet was suspended in assay buffer. The amount of protein in the final membrane preparation was determined with the bicinchoninic acid method (BCA; Pierce Chemical Co., Rockford, Ill.). The final protein concentration used for our studies was 300 to 600 μg/mL. Receptor-binding protocols described below were adapted from published procedures. For all assays, the samples, all in duplicate or triplicate, were placed into scintillation vials containing 5.5 mL of scintillation liquid (Ultima Gold; Packard Instrument Co., Inc., Meriden, Conn.) and the retained radioactivity was determined by conventional scintillation spectroscopy with a Beckman TA-6000 scintillation counter. Radio-ligands were purchased from DuPont-NEN (Boston, Mass.).
[^3H]5,7-Dichlorokynurenic acid (5,7-DCKA)-binding assay. The glycine recognition site of the NMDA receptor complex was labeled with the competitive antagonist [^3H]5,7-dichlorokynurenic acid (5,7-DCKA). […]
Data Analysis. The data were analyzed with SigmaPlot 5.0 and SigmaStat 2.0 (Jandel Scientific, Corte Madera, Calif.) software. […]

CCOC(=O)c1cc(NC(=O)N(c2ccccc2)c2ccccc2)c2c(Cl)cc(Cl)cc2n1 [DCUK-OEt, N,N-diphenyl-4-ureido-5,7-dichloro-2-carboxy quinoline ethyl ester]
levels of DCUKA in the brain generated by the ester [1]: significantly improved levels of DCUKA in the brain
lowest dose with significant differences in percent time spent on the open arms [2]: 25 mg/kg

O=C(O)c1cc(NC(=O)N(c2ccccc2)c2ccccc2)c2c(Cl)cc(Cl)cc2n1 [DCUKA, N,N-diphenyl-4-ureido-5,7-dichloro-2-carboxyquinoline]
pIC50 [3]: 4.55
